Laboratory results taken from patent US11884675B2, “Heterocyclic compounds as triggering receptor expressed on myeloid cells 2 agonists and methods of use” (AMGEN INC., priority 2020, dated 2024).

Each compound was assayed against hTREM2 (Homo sapiens, UniProt Q9NZC2) (assay: TREM2 activity by cellular Syk phosphorylation (AlphaScreen/AlphaLISA) in TREM2/DAP12-HEK cells, used for Examples 1-305). Conditions: HEK293 Cells.
Assay type: cell-based
Parameters: expressed in transfected cells
How it was run: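 Phospho-Syk (Tyr525/526) over total Syk quantified by AlphaScreen in lysates of cloned TREM2/DAP12-overexpressing HEK293 cells after 45 min compound treatment at room temperature, 1% final DMSO. Values expressed relative to 100 nM anti-TREM2 antibody (positive) and isotype IgG (negative) controls; curves fitted with 4-parameter logistic model.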

Chain of hTREM2 (Q9NZC2 19-230): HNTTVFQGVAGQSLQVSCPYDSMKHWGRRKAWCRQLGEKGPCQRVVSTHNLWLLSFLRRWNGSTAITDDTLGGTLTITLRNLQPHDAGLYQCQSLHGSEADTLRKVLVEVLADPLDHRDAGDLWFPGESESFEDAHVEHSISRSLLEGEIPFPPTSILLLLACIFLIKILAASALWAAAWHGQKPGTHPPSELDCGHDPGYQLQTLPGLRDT
Chain of hTREM2 (O43914 22-113 partner): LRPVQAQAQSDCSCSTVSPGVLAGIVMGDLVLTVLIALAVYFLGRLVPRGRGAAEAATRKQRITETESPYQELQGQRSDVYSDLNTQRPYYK

| EC50 | hTREM2 Emax | SMILES |
| --- | --- | --- |
| 50 to 500 nM | +++ (Emax>150 and ≤250) | Cc1cnc2c(-c3ccc(Cl)cc3F)cc([C@H]3CCO[C@@H](c4cnn(C)c4)C3)nc2n1 (single isomer, unassigned) [Example 185] |
| 50 to 500 nM | +++ (Emax>150 and ≤250) | Cc1nc2nc([C@@H]3CCO[C@H](c4cnn(C5CC5)c4)C3)nc(-c3ccc(Cl)cc3F)c2nc1C (single isomer, unassigned) [Example 180] |
| ≤ 50 nM | +++ (Emax>150 and ≤250) | Cc1nc2nc(N3CCO[C@@H](c4cnn(C5CC5)c4)C3)nc(-c3ccc(C(F)(F)F)nc3)c2nc1C [Example 298, (S)-2-(1-cyclopropyl-1H-pyrazol-4-yl)-4-(6,7-dimethyl-4-(6-(trifluoromethyl)pyridin-3-yl)pteridin-2-yl)morpholine] |
| ≤ 50 nM | +++ (Emax>150 and ≤250) | Cc1nc2nc([C@H]3CCO[C@@H](c4cnn(C)c4)C3)nc(-c3ccc(F)cc3F)c2nc1C (single isomer, unassigned) [Example 182] |
| 50 to 500 nM | +++ (Emax>150 and ≤250) | Cc1ncc([C@H]2C[C@@H](c3nc(-c4ccc(Cl)cc4F)c4nc(C)c(C)nc4n3)CCO2)cn1 (single isomer, unassigned) [Example 209] |
| ≤ 50 nM | +++ (Emax>150 and ≤250) | Cc1nc2nc([C@H]3CCO[C@@H](c4cnn(C)c4)C3)nc(C3CCC(F)(F)CC3)c2nc1C (single isomer, unassigned) [Example 176] |
| 500 to 3000 nM | +++ (Emax>150 and ≤250) | Cc1ccc(-c2nc([C@@H]3CCO[C@H](c4cnn(C)c4)C3)nc3nc(C)c(C)nc23)c(F)c1 (single isomer, unassigned) [Example 184] |
| ≤ 50 nM | +++ (Emax>150 and ≤250) | Cc1cc2c(-c3ccc(F)cc3F)nc(N3CCO[C@@H](c4cnn(C5CC5)c4)C3)nc2nc1C [Example 169, 2-((2S)-2-(1-cyclopropyl-1H-pyrazol-4-yl)-4-morpholinyl)-4-(2,4-difluorophenyl)-6,7-dimethylpyrido [2,3-d]pyrimidine] |
| 50 to 500 nM | +++ (Emax>150 and ≤250) | Cc1cc2c(-c3ccc(Cl)cc3F)nc([C@@H]3CCO[C@H](c4cnn(C)c4)C3)nc2nc1C (single isomer, unassigned) [Example 226] |
| ≤ 50 nM | +++ (Emax>150 and ≤250) | Cc1cc([C@@H]2C[C@@H](c3nc(-c4ccc(F)cc4F)c4cc(C)c(C)nc4n3)CCO2)ccn1 (single isomer, unassigned) [Example 227] |
| 50 to 500 nM | ++++ (Emax>250) | Cc1cc([C@@H]2C[C@H](c3nc4nc(C)c(C)nc4c([C@H]4C[C@H](C(F)(F)F)C4)n3)CCO2)ccn1 (single isomer, unassigned) [Example 214] |
| 50 to 500 nM | +++ (Emax>150 and ≤250) | Cc1nc2nc([C@H]3CCO[C@@H](c4cnn(C5CC5)c4)C3)nc(-c3ccc(C(F)(F)F)nc3)c2nc1C [Example 300, 2-((2R,4S)-2-(1-cyclopropyl-1H-pyrazol-4-yl)tetrahydro-2H-pyran-4-yl)-6,7-dimethyl-4-(6-(trifluoromethyl)pyridin-3-yl)pteridine] |
| 500 to 3000 nM | +++ (Emax>150 and ≤250) | CN1Cc2c(-c3ccc(Cl)cc3F)cc(N3CCO[C@H](c4cnn(C)c4)C3)nc2C1=O [Example 304, (R)-4-(4-chloro-2-fluorophenyl)-6-methyl-2-(2-(1-methyl-1H-pyrazol-4-yl)morpholino)-5,6-dihydro-7H-pyrrolo [3,4-b]pyridin-7-one] |
| 500 to 3000 nM | +++ (Emax>150 and ≤250) | Cc1ncc([C@H]2CN(c3nc(-c4ccc(C(F)(F)F)nc4)c4nc(C)c(C)nc4n3)CCO2)cn1 [Example 294, (S)-4-(6,7-dimethyl-4-(6-(trifluoromethyl)pyridin-3-yl)pteridin-2-yl)-2-(2-methylpyrimidin-5-yl)morpholine] |
| 500 to 3000 nM | ++++ (Emax>250) | Cc1ccc(-c2nc([C@@H]3CCO[C@@H](c4cnn(C)c4)C3)nc3nc(C)c(C)cc23)c(F)c1 [Example 268, 4-(2-fluoro-4-methylphenyl)-6,7-dimethyl-2-((2R,4R)-2-(1-methyl-1H-pyrazol-4-yl)tetrahydro-2H-pyran-4-yl)pyrido[2,3-d]pyrimidine] |
| 50 to 500 nM | +++ (Emax>150 and ≤250) | Cc1nc2nc([C@H]3CCO[C@@H](c4cnn(C)c4)C3)nc([C@H]3C[C@H](C(F)(F)F)C3)c2nc1C (single isomer, unassigned) [Example 205] |
| ≤ 50 nM | +++ (Emax>150 and ≤250) | Cc1nc2nc([C@H]3CCO[C@@H](c4cnn(C)c4)C3)cc(-c3ccc(F)cc3F)c2nc1C (single isomer, unassigned) [Example 188] |
| 50 to 500 nM | +++ (Emax>150 and ≤250) | Cc1cc2c(-c3ccc(Cl)cc3F)nc([C@@H]3CCO[C@@H](c4cnn(C)c4)C3)nc2nc1C (single isomer, unassigned) [Example 225] |

Second part, the compound before the results:

| SMILES | EC50 | hTREM2 Emax |
| --- | --- | --- |
| Cc1nc2nc(N3CCO[C@@H](c4cnn(C)c4)C3)nc(C3=CCC(F)(F)CC3)c2nc1C [Example 125, 4-(4,4-difluoro-1-cyclohexen-1-yl)-6,7-dimethyl-2-((2S)-2-(1-methyl-1H-pyrazol-4-yl)-4-morpholinyl)pteridine] | 50 to 500 nM | +++ (Emax>150 and ≤250) |
| Cc1nc2nc(N3CCO[C@@H](c4cnn(C)c4)C3)nc([C@@H]3C[C@H]3C(F)(F)F)c2nc1C [Example 57, 6,7-dimethyl-2-((2S)-2-(1-methyl-1H-pyrazol-4-yl)-4-morpholinyl)-4-((1R,2R)-2-(trifluoromethyl)cyclopropyl)pteridine] | 500 to 3000 nM | ++ (Emax>100 and ≤150) |
| Cc1nc2nc(N3CCO[C@@H](c4cnn(C)c4)C3)nc([C@H]3CC[C@H](C(F)(F)F)CC3)c2nc1C [Example 132, 6,7-dimethyl-2-((2S)-2-(1-methyl-1H-pyrazol-4-yl)-4-morpholinyl)-4-(trans-4-(trifluoromethyl)cyclohexyl)pteridine] | ≤ 50 nM | ++ (Emax>100 and ≤150) |
| Cc1nc2nc(N3CCO[C@@H](c4cnn(C)c4)C3)nc(N3CCC(F)(F)CC3)c2nc1C [Example 66, 4-(4,4-difluoro-1-piperidinyl)-6,7-dimethyl-2-((2S)-2-(1-methyl-1H-pyrazol-4-yl)-4-morpholinyl)pteridine] | 500 to 3000 nM |  |
| Cc1nc2nc(N3CCO[C@@H](c4cnn(C)c4)C3)nc(-c3ccc(Cl)cc3F)c2nc1C [Example 21, 4-(4-chloro-2-fluorophenyl)-6,7-dimethyl-2-((2S)-2-(1-methyl-1H-pyrazol-4-yl)-4-morpholinyl)pteridine] | ≤ 50 nM | ++++ (Emax>250) |
| Cc1nc2nc(N3CCO[C@@H](c4cnn(C)c4)C3)nc(C3=CC[C@H](C(F)(F)F)CC3)c2nc1C (single isomer, unassigned) [Example 126] | 50 to 500 nM | + (Emax>45 and ≤100) |
| Cc1ccc(-c2nc(N3CCO[C@@H](c4cnn(C)c4)C3)nc3nc(C)ccc23)c(F)c1 [Example 94, 4-(2-fluoro-4-methylphenyl)-7-methyl-2-((2S)-2-(1-methyl-1H-pyrazol-4-yl)-4-morpholinyl)pyrido[2,3-d]pyrimidine] | 50 to 500 nM | +++ (Emax>150 and ≤250) |
| Cc1nc2nc(N3CCO[C@@H](c4cnn(C)c4)C3)nc(C3CCCCC3)c2nc1C [Example 134, 4-cyclohexyl-6,7-dimethyl-2-((2S)-2-(1-methyl-1H-pyrazol-4-yl)-4-morpholinyl)pteridine] | 50 to 500 nM | + (Emax>45 and ≤100) |
| Cc1ccc2c(-c3ccc(Cl)cc3F)nc(N3CCO[C@H](c4cnc(C)nc4)C3)nc2n1 (single isomer, unassigned) [Example 89] | 500 to 3000 nM | +++ (Emax>150 and ≤250) |
| Cc1cnc2c(n1)nc(N1CCO[C@@H](c3cnn(C4CC4)c3)C1)nc2[C@H]1C[C@@H](C(F)(F)F)C1 [Example 12, 2-((2S)-2-(1-cyclopropyl-1H-pyrazol-4-yl)-4-morpholinyl)-7-methyl-4-(cis-3-(trifluoromethyl)cyclobutyl)pteridine] | 500 to 3000 nM | ++ (Emax>100 and ≤150) |
| Cc1cc([C@H]2CN(c3nc(-c4ccc(F)cc4F)c4ncc(C)nc4n3)CCO2)ccn1 [Example 8, 4-(2,4-difluorophenyl)-7-methyl-2-((2S)-2-(2-methyl-4-pyridinyl)-4-morpholinyl)pteridine] | ≤ 50 nM | ++ (Emax>100 and ≤150) |
| Cc1ccc(-c2nc(N3CCO[C@@H](c4cnn(C5CC5)c4)C3)nc3nc(C)ccc23)c(F)c1 [Example 95, 2-((2S)-2-(1-cyclopropyl-1H-pyrazol-4-yl)-4-morpholinyl)-4-(2-fluoro-4-methylphenyl)-7-methylpyrido[2,3-d]pyrimidine] | ≤ 50 nM | +++ (Emax>150 and ≤250) |
| CCc1ccc2c(-c3ccc(F)cc3F)nc(N3CCO[C@@H](c4cnn(C)c4)C3)nc2n1 [Example 167, 4-(2,4-difluorophenyl)-7-ethyl-2((2S)-2-(1-methyl-1H-pyrazol-4-yl)-4-morpholinyl) pyrido[2,3-d]pyrimidine] | 50 to 500 nM | ++++ (Emax>250) |
| Cc1nc2nc(N3CCO[C@@H](c4cnn(C)c4)C3)nc([C@H]3CC[C@@H](C)CC3)c2nc1C [Example 135, 6,7-dimethyl-4-(cis-4-methylcyclohexyl)-2-((2S)-2-(1-methyl-1H-pyrazol-4-yl)-4-morpholinyl)pteridine] | 50 to 500 nM | + (Emax>45 and ≤100) |
| Cc1nc2nc(N3CCO[C@@H](c4cnn(C5CC5)c4)C3)nc([C@H]3C[C@H](C(F)(F)F)C3)c2nc1C [Example 50, 2-((2S)-2-(1-cyclopropyl-1H-pyrazol-4-yl)-4-morpholinyl)-6,7-dimethyl-4-(trans-3-(trifluoromethyl)cyclobutyl)pteridine] | ≤ 50 nM | +++ (Emax>150 and ≤250) |
